Earlier results in PMC6376154 (International Journal for Parasitology: Drugs and Drug …, 2019).
pEC50: −log10 of the molar value. Read-outs that look alike come from different tables or passages of the source.

System: P. falciparum 3D7 asexual blood stage
Details: cited from earlier work
[1] = MMV Malaria Box data sheet (supplement mmc2.xls), ref MMV data sheet
[2] = MMV Malaria Box data sheet (supplement mmc2.xls), ref MMV data sheet, read-out: EC50_nM
[3] = MMV Malaria Box sheet, ref MMV data sheets
[4] = MMV Malaria Box sheet, ref MMV data sheets, read-out: EC50_nM
[5] = source StJude, ref ChEMBL_NTD, read-out: CHEMBL EC50
[6] = ChEMBL-NTD value per source (GNF, GSK, StJude), several values in a cell follow the order of the sources, read-out: CHEMBL EC50
[7] = MMV Malaria Box data sheet, ref MMV data sheets
[8] = MMV Malaria Box data sheet, ref MMV data sheets, read-out: EC50_nM
[9] = source GNF, ref ChEMBL_NTD, read-out: CHEMBL EC50
[10] = source GSK, ref ChEMBL_NTD, read-out: CHEMBL EC50
[11] = value(s) per source (GSK, GNF, StJude), separated by semicolon, ref ChEMBL-NTD, read-out: CHEMBL EC50

## CCN(CC)CCn1c(=N)n(CC(O)c2ccc(Cl)c(Cl)c2)c2ccccc21 (stereo not shown) [MMV000248]
[1]
  percent_inh @ 5 uM: 97%
[2]
  pEC50: 6.14

## CCOc1ccc(Nc2c3ccccc3nc3ccccc23)cc1 [MMV000304]
[3]
  percent_inh @ 5 uM: 97%
[4]
  pEC50: 5.97
[5]
  pEC50: 5.24

## Cc1ccc2nc(C)cc(Nc3cccc(C(F)(F)F)c3)c2c1 [MMV000326]
[3]
  percent_inh @ 5 uM: 98%
[4]
  pEC50: 5.93
[5]
  pEC50: 6.06

## CCn1c2c(c(=N)c3c1CCC3)CCCC2 [MMV000340]
[6]
  pEC50: 5.51

## CC(C)(C)c1ccc2c(c1)CN(Cc1ccc(Cl)cc1)CO2 [MMV000442]
[3]
  percent_inh @ 5 uM: 98%
[4]
  pEC50: 6.44
[5]
  pEC50: 6.59

## CCOc1ccc2c(c1)CN(Cc1ccc(Cl)cc1)CO2 [MMV000443]
[3]
  percent_inh @ 5 uM: 97%
[4]
  pEC50: 6.36
[5]
  pEC50: 5.83

## CCCCCn1c(=N)n(CC(O)COc2cccc(C)c2)c2ccccc21 (stereo not shown) [MMV000444]
[3]
  percent_inh @ 5 uM: 96%
[5]
  pEC50: 5.58

## CCCCCCn1c(=N)n(CC(O)COc2cccc(C)c2)c2ccccc21 (stereo not shown) [MMV000445]
[3]
  percent_inh @ 5 uM: 98%
[4]
  pEC50: 5.95
[5]
  pEC50: 5.71

## CN(C)CCCNc1c2ccccc2nc2ccccc12 [MMV000448]
[7]
  percent_inh @ 5 uM: 95%
[8]
  pEC50: 6.63
[9]
  pEC50: 7.49
[10]
  pEC50: 5.98
[5]
  pEC50: 6.27

## CCOc1cc2c(cc1OCC)C(c1cc(Cl)c(O)c(OCC)c1)NCC2 (stereo not shown) [MMV000481]
[3]
  percent_inh @ 5 uM: 96%
[4]
  pEC50: 5.88
[5]
  pEC50: 5.52

## CCOc1cc2c(cc1OCC)C(c1cc(C)c(O)c(C)c1)NCC2 (stereo not shown) [MMV000483]
[3]
  percent_inh @ 5 uM: 97%
[4]
  pEC50: 6.17
[5]
  pEC50: 5.74

## CCN(CC)c1cc(C)c2cc(NC(=O)c3cccc(OC)c3)ccc2n1 [MMV000498]
[1]
  percent_inh @ 5 uM: 97%
[11]
  pEC50: 5.32

## CCCN(CCC)CCCNC(=O)c1cc2c(-c3ccc(OC)c(OC)c3)nn(C)c2s1 [MMV000561]
[1]
  percent_inh @ 5 uM: 98%
[2]
  pEC50: 5.84
[11]
  pEC50: 5.39

## COc1ccc(C2Sc3ccccc3N=C3C2=C(O)c2ccccc23)cc1 (stereo not shown) [MMV000563]
[7]
  percent_inh @ 5 uM: 96%
[8]
  pEC50: 6.07
[9]
  pEC50: 6.62

## CCc1ccc(Nc2cc(C)c3ccc(O)cc3n2)cc1 [MMV000570]
[7]
  percent_inh @ 5 uM: 98%
[8]
  pEC50: 6.71
[5]
  pEC50: 6.14

## COc1ccc(-c2cc(=O)oc3c4c(ccc23)OCN(Cc2ccc(F)cc2)C4)cc1 [MMV000604]
[3]
  percent_inh @ 5 uM: 96%
[4]
  pEC50: 6.13
[5]
  pEC50: 5.28

## COc1ccc(C(O)(CCC(C)C)C(CN2CCOCC2)c2ccc(Cl)cc2)cc1 (stereo not shown) [MMV000617]
[6]
  pEC50: 5.34

## CCCCC(O)(c1ccc(Cl)cc1)C(CN1CCOCC1)c1ccc(Cl)cc1 (stereo not shown) [MMV000619]
[3]
  percent_inh @ 5 uM: 98%
[4]
  pEC50: 5.86
[5]
  pEC50: 5.40

## CC(O)(c1ccc(Cl)cc1)C(CN1CCCCC1)c1ccccc1 (stereo not shown) [MMV000620]
[7]
  percent_inh @ 5 uM: 94%
[5]
  pEC50: 6.04

## CCCCCCC(O)(c1ccc(F)cc1)C(CN1CCOCC1)c1ccccc1 (stereo not shown) [MMV000621]
[3]
  percent_inh @ 5 uM: 93%
[5]
  pEC50: 5.50

## CC1CCCCN1CCCNC(=O)c1ccc2c(c1)sc1nc(-c3ccc(F)cc3)cn12 (stereo not shown) [MMV000634]
[7]
  percent_inh @ 5 uM: 98%
[8]
  pEC50: 6.19
[5]
  pEC50: 6.20

## COc1ccc(NC(=O)C2c3ccccc3C(=O)N(CC(C)C)C2c2cccs2)cc1Cl (stereo not shown) [MMV000642]
[7]
  percent_inh @ 5 uM: 100%
[8]
  pEC50: 7.69
[9]
  pEC50: 7.04
[5]
  pEC50: 6.93

## COc1ccccc1CNC(=O)C1c2ccccc2C(=O)N(CC(C)C)C1c1cccs1 (stereo not shown) [MMV000648]
[1]
  percent_inh @ 5 uM: 97%
[11]
  pEC50: 5.50

## CCOc1ccccc1CNC(=O)C1c2ccccc2C(=O)N(CC(C)C)C1c1cccs1 (stereo not shown) [MMV000653]
[7]
  percent_inh @ 5 uM: 97%
[8]
  pEC50: 5.88
[5]
  pEC50: 5.84

## COc1ccc(NC(=O)C2c3ccccc3C(=O)N(CC(C)C)C2c2cccs2)cc1 (stereo not shown) [MMV000662]
[7]
  percent_inh @ 5 uM: 100%
[8]
  pEC50: 7.44
[5]
  pEC50: 6.99

## Cc1ccc(C2CC(C(F)(F)F)n3nc(C(=O)N4CCN(C(c5ccccc5)c5ccccc5)CC4)cc3N2)cc1 (stereo not shown) [MMV000699]
[3]
  percent_inh @ 5 uM: 98%
[4]
  pEC50: 6.34
[5]
  pEC50: 6.17

## Cc1ccnc(NC(c2cccc(OCc3ccccc3)c2)c2ccc3cccnc3c2O)c1 (stereo not shown) [MMV000720]
[3]
  percent_inh @ 5 uM: 97%
[4]
  pEC50: 5.99
[10]
  pEC50: 6.06
[5]
  pEC50: 5.74

## Oc1c(CN2CCN(c3ccccc3F)CC2)cc(Br)c2cccnc12 [MMV000760]
[3]
  percent_inh @ 5 uM: 91%
[5]
  pEC50: 5.42

## CCCOCc1cc(CN2CCN(c3cccc(Cl)c3)CC2)c(O)c2ncccc12 [MMV000787]
[6]
  pEC50: 5.96

## CC(C)OCc1cc(CN2CCN(c3cccc(Cl)c3)CC2)c(O)c2ncccc12 [MMV000788]
[1]
  percent_inh @ 5 uM: 98%
[2]
  pEC50: 6.16
[11]
  pEC50: 6.03

## OC(CNCc1ccccc1)Cn1c2ccccc2c2ccccc21 (stereo not shown) [MMV000839]
[3]
  percent_inh @ 5 uM: 95%
[4]
  pEC50: 5.97
[5]
  pEC50: 5.43

## OC(CNC1CCCC1)Cn1c2ccccc2c2ccccc21 (stereo not shown) [MMV000848]
[1]
  percent_inh @ 5 uM: 97%
[2]
  pEC50: 6.18
[11]
  pEC50: 5.97

## Cc1ccc(NC(=O)Nc2cccc(Cl)c2)cc1F [MMV000911]
[1]
  percent_inh @ 5 uM: 52%
[11]
  pEC50: 4.82

## COc1ccc2c(c1OC)C(=O)N1c3ccccc3N=C(c3ccc(C)cc3)CC21 (stereo not shown) [MMV000917]
[3]
  percent_inh @ 5 uM: 93%
[4]
  pEC50: 5.91
[5]
  pEC50: 5.60

## COc1ccc(Nc2nc(NCc3ccccc3)c3ccccc3n2)cc1 [MMV000963]
[4]
  pEC50: 6.23
[9]
  pEC50: 6.67
[5]
  pEC50: 5.88

## O=C1CC(O)(C(F)(F)C(F)(F)F)Oc2ccccc21 (stereo not shown) [MMV000972]
[3]
  percent_inh @ 5 uM: 95%
[5]
  pEC50: 5.59

## Cc1ccc(Nc2nc(NCCO)c3ccccc3n2)cc1C [MMV001038]
[8]
  pEC50: 6.37
[9]
  pEC50: 6.76
[5]
  pEC50: 6.07

## CC(C)c1ccc(CNCC(O)c2ccccc2)cc1 (stereo not shown) [MMV001049]
[3]
  percent_inh @ 5 uM: 96%
[4]
  pEC50: 5.90
[5]
  pEC50: 5.87

## CCOc1cccc2sc(N(Cc3cccnc3)C(=O)C3CCCCC3)nc12 [MMV001230]
[1]
  percent_inh @ 5 uM: 94%
[11]
  pEC50: 5.52

## COc1ccc2sc(N(Cc3cccnc3)C(=O)c3ccc(C#N)cc3)nc2c1 [MMV001239]
[6]
  pEC50: 4.82

## COc1ccc(C)c2sc(N(Cc3cccnc3)C(=O)c3ccc(C#N)cc3)nc12 [MMV001241]
[3]
  percent_inh @ 5 uM: 91%
[5]
  pEC50: 4.82

## CSc1ccccc1C(=O)Nc1nc(-c2ccccn2)cs1 [MMV001246]
[7]
  percent_inh @ 5 uM: 98%
[8]
  pEC50: 6.69
[5]
  pEC50: 5.17

## CCCCc1ccc(NS(=O)(=O)c2cc3c4c(c2)CCN4C(=O)CC3)cc1 [MMV001255]
[7]
  percent_inh @ 5 uM: 96%
[8]
  pEC50: 6.27
[5]
  pEC50: 4.82

## O=C(Nc1ccc(Br)cc1)Nc1cccc(Cl)c1 [MMV001318]
[3]
  percent_inh @ 5 uM: 94%
[5]
  pEC50: 4.82

## CC1CC(C)CN(C(=O)c2ccc(Cl)cc2Cl)C1 (stereo not shown) [MMV001344]
[1]
  percent_inh @ 5 uM: 95%
[2]
  pEC50: 6.12
[11]
  pEC50: 5.88

## CCN(CC)CCNc1ccnc2cc(Cl)ccc12 [MMV006087]
[8]
  pEC50: 7.24
[9]
  pEC50: 8.15

## c1ccc(CNc2nc(Nc3ccccc3)nc3ccccc23)cc1 [MMV006169]
[6]
  pEC50: 6.80

## CN1CCN(c2ccc(Nc3c4ccccc4nc4ccccc34)cc2)CC1 [MMV006172]
[7]
  percent_inh @ 5 uM: 97%
[8]
  pEC50: 6.85
[9]
  pEC50: 7.25
[10]
  pEC50: 6.19

## O=C(NCc1ccco1)C1CCN(S(=O)(=O)c2ccc(Cl)cc2)CC1 [MMV006188]
[1]
  percent_inh @ 5 uM: 94%
[2]
  pEC50: 6.05
[11]
  pEC50: 6.29

## Cc1cc(NCCN2CCCCC2)c2ccc3ccccc3c2n1 [MMV006203]
[7]
  percent_inh @ 5 uM: 99%
[8]
  pEC50: 6.52
[9]
  pEC50: 7.36

## CCOC(=O)c1cnc2c(C)cccc2c1Nc1ccc(C(C)=O)cc1 [MMV006250]
[3]
  percent_inh @ 5 uM: 94%
[4]
  pEC50: 6.50
[9]
  pEC50: 6.93

## CCc1c(C)c(=N)c2ccccc2n1C [MMV006278]
[7]
  percent_inh @ 5 uM: 76%
[8]
  pEC50: 6.42
[9]
  pEC50: 6.15

## CCN(CC)CCNc1ccnc2cc3ccccc3cc12 [MMV006303]
[6]
  pEC50: 7.54

## CN(C)c1ccc(C=Cc2nc(=O)c3ccccc3o2)cc1 [MMV006309]
[7]
  percent_inh @ 5 uM: 96%
[8]
  pEC50: 7.29
[10]
  pEC50: 7.35

## Cc1cc(Nc2cccc(F)c2)nc(NCc2ccccc2)n1 [MMV006319]
2 uM, MMV Malaria Box sheet, ref MMV data sheets
  percent_inh @ 2 uM: 97%
[4]
  pEC50: 6.18
[9]
  pEC50: 7.14

## O=C1c2ccccc2C2=Nc3ccccc3SC(c3cccc(F)c3)C12 (stereo not shown) [MMV006389]
[3]
  percent_inh @ 5 uM: 94%
[4]
  pEC50: 6.38
[9]
  pEC50: 7.06

## COc1cc(OC)c(N(C)C(=O)c2cc3c(s2)-c2ccccc2S(=O)(=O)C3)cc1Cl [MMV006427]
[7]
  percent_inh @ 5 uM: 100%
[8]
  pEC50: 7.11
[9]
  pEC50: 6.95

## Cc1cc(NC(=O)C2c3ccccc3C(=O)N(CC(C)C)C2c2cccs2)no1 (stereo not shown) [MMV006429]
[7]
  percent_inh @ 5 uM: 100%
[8]
  pEC50: 7.48
[9]
  pEC50: 7.07

## CCOC(=O)c1ccc2nc(-c3ccccc3)cc(O)c2c1 [MMV006457]
[7]
  percent_inh @ 5 uM: 96%
[8]
  pEC50: 6.93
[9]
  pEC50: 6.26

## c1ccc2c(NCCc3c[nH]c4ccccc34)c3ccccc3nc2c1 [MMV006513]
[3]
  percent_inh @ 5 uM: 97%
[4]
  pEC50: 6.52
[9]
  pEC50: 7.07

## CCOc1ccc2nc(C)cc(Nc3ccc(Br)cc3)c2c1 [MMV006522]
[6]
  pEC50: 6.95

## CCN(CC)CCNc1ncnc2c1[nH]c1ccc(Br)cc12 [MMV006545]
[2]
  pEC50: 6.15
[11]
  pEC50: 6.54
